“Also recorded” adds a separate entry of the source.
Key:
HSV-1 = type: cell-based, Herpes Simplex Virus 1; conditions: mouse macrophages/BMDMs pre-treated with 1 mM ddhC; MOI 1 or 10; 24 hours; flow cytometry; preliminary
Vaccinia virus = type: cell-based
LCMV = type: cell-based, lymphocytic choriomeningitis virus; conditions: BMDMs pre-treated with 1 mM ddhC; MOI 1 or 10; 24 hours; qPCR; preliminary
M. tuberculosis = M. tuberculosis growth in ddhC-stimulated macrophages; type: cell-based, Mycobacterium tuberculosis; conditions: ddhC-stimulated macrophages vs Vehicle or Cytidine; preliminary
[1] = system: TLR-mediated NFkB activation; assay: TLR-mediated NFkB activation, RAW264.7 NFkB reporter cells; type: cell-based; conditions: for TLR-mediated NFkB activation: RAW264.7 NFkB reporter, pre-treated overnight, 500 ng/mL LPS, 1 μg/mL PAM, or 1 μg/mL R848
[2] = system: TLR-mediated Type 1 interferon signaling; assay: TLR-mediated Type 1 interferon signaling in macrophages; type: cell-based
flavivirus = conditions: endogenously produced and exogenously administered; Gizzi et al., 2018; cited from earlier work
host cell physiology = conditions: cited from earlier work
Viperin expression = Viperin expression in Poly(I:C)-stimulated BMDMs (qPCR); conditions: 1 mM ddhC co-stimulated with 25 ug/mL Poly(I:C)
ZIKV = conditions: previous study; cited from earlier work
HCV = conditions: previous study; cited from earlier work
WNV = conditions: previous study; cited from earlier work
DV = conditions: previous study; cited from earlier work

Row | SMILES | HSV-1 replication / infectivity (HSV-1) | Vaccinia virus infection (Vaccinia virus) | LCMV replication (LCMV) | M. tuberculosis growth restriction (M. tuberculosis) | TLR-mediated NFkB activation [1] | TLR-mediated NFkB signaling in macrophages ([1]; macrophages, preliminary data) | TLR-mediated Type 1 interferon signaling ([2]; macrophages, preliminary data) | flavivirus infection restriction (flavivirus) | toxicity to the host (host cell physiology) | Poly(I:C)-induced Viperin upregulation (Viperin expression) | TLR4-mediated Type 1 interferon induction ([2]; preliminary results) | suppression of ZIKV (ZIKV) | suppression of HCV (HCV) | suppression of WNV (WNV) | suppression of DV (DV) | cytotoxic effects on host cell physiology (host cell physiology)
1 | Nc1ccn([C@@H]2OC(CO)=C[C@H]2O)c(=O)n1 [ddhC] | increases replication; also recorded: increasing | negligible effects | suppresses replication | lead to restriction; also recorded: restrict M. tuberculosis growth greater than those treated with Vehicle or Cytidine | agonize | modulates | modulates | restricts | minimal evidence of toxicity | dampened |  |  |  |  |  | 
2 | Nc1ccn([C@@H]2OC(COP(=O)(O)OP(=O)(O)OP(=O)(O)O)=C[C@H]2O)c(=O)n1 [ddhCTP, 3′-deoxy-3′, 4′-didehydro-CTP] | increases |  |  |  |  |  |  | restricts | minimal evidence of toxicity |  | suppresses | can suppress | can suppress | can suppress | can suppress | no cytotoxic effects
3 | Nc1nc2c(ncn2[C@@H]2OC(CO)=C[C@H]2O)c(=O)[nH]1 [ddhG] |  |  |  |  | agonize |  |  |  |  |  |  |  |  |  |  | 

Reference: patent publication US20230138178A1, “Methods and Compositions for Producing a Heterologous Antiviral Compound in a Host Cell” (priority 2019, published 2023)
